Experimental data taken from patent US20100298141A1, “SUBSTITUTED PYRIDINE N-OXIDE HERBICIDES” (E. I. DU PONT DE NEMOURS AND COMPANY, priority 2007, published 2010).

How the values were obtained:
[1] = tested on: barnyardgrass; experiment: Test A pre-/postemergence greenhouse test; assay type: in vivo, Echinochloa crus-galli; settings: for Plant response rating, Barnyardgrass: 0 to 100 scale where 0 is no effect and 100 is complete control; for Barnyardgrass plant response rating: 0 to 100 scale
Method in brief: (§1)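 Herbicidal effect is a visual injury score given about ten days post-treatment by comparison with untreated controls. Preemergence plots received a directed spray onto sown loam–sand soil; postemergence plants, at the one- to two-leaf stage and 2–10 cm tall, were sprayed at the same time.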

[2] = tested on: crabgrass; experiment: Test A pre-/postemergence greenhouse test; assay type: in vivo, Digitaria sanguinalis; settings: for Plant response rating, Crabgrass, Large: 0 to 100 scale where 0 is no effect and 100 is complete control; for Crabgrass, Large plant response rating: 0 to 100 scale
Method in brief: as §1

[3] = tested on: giant foxtail; experiment: Test A pre-/postemergence greenhouse test; assay type: in vivo, Setaria faberi; settings: for Plant response rating, Foxtail, Giant: 0 to 100 scale where 0 is no effect and 100 is complete control; for Foxtail, Giant plant response rating: 0 to 100 scale
Method in brief: as §1

[4] = tested on: morningglory; experiment: Test A pre-/postemergence greenhouse test; assay type: in vivo, Ipomoea spp.; settings: for Plant response rating, Morningglory: 0 to 100 scale where 0 is no effect and 100 is complete control; for Morningglory plant response rating: 0 to 100 scale
Method in brief: as §1

[5] = tested on: Italian ryegrass; experiment: Test C pre-/postemergence test; assay type: in vivo, Lolium multiflorum; settings: for Plant response rating, Ryegrass, Italian: 31 g ai/ha, scale 0 to 100 (0 no effect, 100 complete control)
Method in brief: (§2)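 Compounds in a non-phytotoxic solvent with surfactant applied preemergence to seeded pots and, at the same time, postemergence to plants 2–18 cm tall (1- to 4-leaf stage). Paddy tests: pots flooded to 3 cm, compound applied into the water, depth held throughout.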

[6] = tested on: bermudagrass; experiment: Test C pre-/postemergence test; assay type: in vivo, Cynodon dactylon; settings: for Plant response rating, Bermudagrass: 31 g ai/ha
Method in brief: as §2

[7] = tested on: Surinam grass; experiment: Test C pre-/postemergence test; assay type: in vivo, Brachiaria decumbens; settings: for Plant response rating, Surinam Grass: 31 g ai/ha, scale 0 to 100 (0 no effect, 100 complete control)
Method in brief: as §2

[8] = tested on: cocklebur; experiment: Test C pre-/postemergence test; assay type: in vivo, Xanthium strumarium; settings: for Plant response rating, Cocklebur: 31 g ai/ha, scale 0 to 100 (0 no effect, 100 complete control)
Method in brief: as §2

[9] = tested on: crabgrass; experiment: Test C pre-/postemergence test; assay type: in vivo, Digitaria sanguinalis; settings: for Plant response rating, Crabgrass, Large: 31 g ai/ha, scale 0 to 100 (0 no effect, 100 complete control)
Method in brief: as §2

[10] = tested on: Goosegrass; experiment: Test C pre-/postemergence test; assay type: in vivo, Eleusin indica; settings: for Plant response rating, Goosegrass: 31 g ai/ha, scale 0 to 100 (0 no effect, 100 complete control)
Method in brief: as §2

[11] = tested on: kochia; experiment: Test C pre-/postemergence test; assay type: in vivo, Kochia scoparia; settings: for Plant response rating, Kochia: 31 g ai/ha, scale 0 to 100 (0 no effect, 100 complete control)
Method in brief: as §2

[12] = tested on: lambsquarters; experiment: Test C pre-/postemergence test; assay type: in vivo, Chenopodium album; settings: for Plant response rating, Lambsquarters: 31 g ai/ha, scale 0 to 100 (0 no effect, 100 complete control)
Method in brief: as §2

[13] = tested on: pigweed; experiment: Test C pre-/postemergence test; assay type: in vivo, Amaranthus retroflexus; settings: for Plant response rating, Pigweed: 31 g ai/ha, scale 0 to 100 (0 no effect, 100 complete control)
Method in brief: as §2

[14] = tested on: soybean; experiment: Test C pre-/postemergence test; assay type: in vivo, Glycine max; settings: for Plant response rating, Soybean: 31 g ai/ha, scale 0 to 100 (0 no effect, 100 complete control)
Method in brief: as §2

[15] = tested on: common (oilseed) sunflower; experiment: Test C pre-/postemergence test; assay type: in vivo, Helianthus annuus; settings: for Plant response rating, Sunflower: 31 g ai/ha, scale 0 to 100 (0 no effect, 100 complete control)
Method in brief: as §2

[16] = tested on: umbrella sedge; experiment: Test C flooded paddy test; assay type: in vivo, Cyperus difformis; settings: Flood
Method in brief: (§3)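 Ratings were visual and made relative to untreated controls after 13 to 15 greenhouse days.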

[17] = tested on: barnyardgrass; experiment: Test C flooded paddy test; assay type: in vivo, Echinochloa crus-galli; settings: Flood
Method in brief: as §3

[18] = Postemergence, 500 g ai/ha, 0 is no effect, 100 is complete control
[19] = Preemergence, 125 g ai/ha, 0 no effect, 100 complete control
[20] = Preemergence, 500 g ai/ha, 0 no effect, 100 complete control
[21] = 125 g ai/ha, preemergence, scale 0 (no effect) to 100 (complete control)
[22] = preemergence, 250 g ai/ha, scale 0 (no effect) to 100 (complete control)
[23] = 62 g ai/ha, Preemergence, scale 0 to 100 (0 no effect, 100 complete control)
[24] = Preemergence, scale 0 to 100 (0 no effect, 100 complete control)
[25] = 62 g ai/ha, Preemergence, scale 0 to 100
[26] = 62 g ai/ha, scale 0 to 100 (0 no effect, 100 complete control)
[27] = 250 g ai/ha, scale 0 to 100, 0 no effect, 100 complete control, 13 to 15 days

CCc1cc[n+]([O-])c([S+]([O-])Cc2c(C(F)(F)F)nn(C)c2OC(F)F)c1 (stereo not drawn) [Compound 101]
85: Bermudagrass plant response rating [6, 23] | Crabgrass, Large plant response rating [9, 25] | Goosegrass plant response rating [10, 25] | Kochia plant response rating [11, 21] | Soybean plant response rating [14, 22]
55: Plant response rating, Bermudagrass [6, 24]
50: Plant response rating, Crabgrass, Large ([9]; Preemergence) | Pigweed plant response rating [13, 25] | Plant response rating, Pigweed ([13]; Preemergence)
95: Surinam Grass plant response rating [7, 21] | Crabgrass, Large plant response rating [9, 21] | Pigweed plant response rating [13, 21]
10: Cocklebur plant response rating [8, 21]
100: Barnyardgrass plant response rating [1, 20] | Crabgrass, Large plant response rating [2, 20] | Foxtail, Giant plant response rating [3, 19] | Foxtail, Giant plant response rating [3, 20] | Morningglory plant response rating [4, 18] | Morningglory plant response rating [4, 20] | Bermudagrass plant response rating [6, 21] | Bermudagrass plant response rating [6, 22] | Goosegrass plant response rating [10, 21] | Goosegrass plant response rating [10, 22] | Kochia plant response rating [11, 22] | Lambsquarters plant response rating [12, 25] | Lambsquarters plant response rating [12, 21] | Lambsquarters plant response rating [12, 22]
60: Plant response rating, Crabgrass, Large ([2]; Postemergence, 125 g ai/ha) | Ryegrass, Italian plant response rating [5, 22] | Plant response rating, Surinam Grass ([7]; Preemergence) | Soybean plant response rating [14, 25] | Sunflower plant response rating [15, 22]
70: Plant response rating, Morningglory ([4]; Postemergence, 125 g ai/ha) | Plant response rating, Barnyardgrass [17, 27]
30: Kochia plant response rating [11, 25]
90: Barnyardgrass plant response rating [1, 18] | Barnyardgrass plant response rating [1, 19] | Crabgrass, Large plant response rating [2, 18] | Crabgrass, Large plant response rating [2, 19] | Foxtail, Giant plant response rating [3, 18] | Plant response rating, Sedge, Umbrella [16, 27]
98: Surinam Grass plant response rating [7, 22] | Crabgrass, Large plant response rating [9, 22] | Pigweed plant response rating [13, 22]
15: Cocklebur plant response rating [8, 22]
75: Soybean plant response rating [14, 21]
0: Ryegrass, Italian plant response rating [5, 21] | Plant response rating, Ryegrass, Italian ([5]; Preemergence) | Cocklebur plant response rating [8, 25] | Plant response rating, Cocklebur ([8]; Preemergence) | Plant response rating, Kochia ([11]; Preemergence) | Plant response rating, Soybean ([14]; Preemergence) | Sunflower plant response rating [15, 25] | Plant response rating, Sunflower ([15]; Preemergence) | Plant response rating, Sedge, Umbrella [16, 26] | Plant response rating, Barnyardgrass [17, 26]
5: Sunflower plant response rating [15, 21]
80: Plant response rating, Barnyardgrass ([1]; Postemergence, 125 g ai/ha) | Plant response rating, Foxtail, Giant ([3]; Postemergence, 125 g ai/ha) | Morningglory plant response rating [4, 19] | Surinam Grass plant response rating [7, 25] | Plant response rating, Goosegrass ([10]; Preemergence) | Plant response rating, Lambsquarters ([12]; Preemergence)

Cn1nc(C(F)(F)F)c(C[S+]([O-])c2cccc[n+]2[O-])c1OCC(F)F (stereo not drawn) [Compound 75]
85: Crabgrass, Large plant response rating [9, 25] | Goosegrass plant response rating [10, 25] | Plant response rating, Sedge, Umbrella [16, 27]
45: Plant response rating, Barnyardgrass [17, 27]
98: Soybean plant response rating [14, 25]
70: Plant response rating, Crabgrass, Large ([2]; Postemergence, 125 g ai/ha) | Crabgrass, Large plant response rating [2, 19] | Ryegrass, Italian plant response rating [5, 25]
80: Barnyardgrass plant response rating [1, 18] | Barnyardgrass plant response rating [1, 19] | Crabgrass, Large plant response rating [2, 18] | Plant response rating, Foxtail, Giant ([3]; Postemergence, 125 g ai/ha) | Plant response rating, Goosegrass ([10]; Preemergence)
10: Cocklebur plant response rating [8, 22]
40: Plant response rating, Morningglory ([4]; Postemergence, 125 g ai/ha) | Morningglory plant response rating [4, 19] | Plant response rating, Crabgrass, Large ([9]; Preemergence)
90: Foxtail, Giant plant response rating [3, 18] | Foxtail, Giant plant response rating [3, 19] | Morningglory plant response rating [4, 18] | Plant response rating, Morningglory ([4]; Preemergence, 500 g ai/ha)
60: Plant response rating, Barnyardgrass ([1]; Postemergence, 125 g ai/ha) | Plant response rating, Surinam Grass ([7]; Preemergence)
100: Plant response rating, Barnyardgrass ([1]; Preemergence, 500 g ai/ha) | Plant response rating, Crabgrass, Large ([2]; Preemergence, 500 g ai/ha) | Plant response rating, Foxtail, Giant ([3]; Preemergence, 500 g ai/ha) | Ryegrass, Italian plant response rating [5, 21] | Ryegrass, Italian plant response rating [5, 22] | Bermudagrass plant response rating [6, 23] | Bermudagrass plant response rating [6, 21] | Plant response rating, Bermudagrass [6, 24] | Bermudagrass plant response rating [6, 22] | Surinam Grass plant response rating [7, 25] | Surinam Grass plant response rating [7, 21] | Surinam Grass plant response rating [7, 22] | Crabgrass, Large plant response rating [9, 21] | Crabgrass, Large plant response rating [9, 22] | Goosegrass plant response rating [10, 21] | Goosegrass plant response rating [10, 22] | Kochia plant response rating [11, 25] | Kochia plant response rating [11, 21] | Plant response rating, Kochia ([11]; Preemergence) | Kochia plant response rating [11, 22] | Lambsquarters plant response rating [12, 25] | Lambsquarters plant response rating [12, 21] | Plant response rating, Lambsquarters ([12]; Preemergence) | Lambsquarters plant response rating [12, 22] | Pigweed plant response rating [13, 25] | Pigweed plant response rating [13, 21] | Plant response rating, Pigweed ([13]; Preemergence) | Pigweed plant response rating [13, 22] | Soybean plant response rating [14, 21] | Sunflower plant response rating [15, 21] | Sunflower plant response rating [15, 22]
50: Sunflower plant response rating [15, 25] | Plant response rating, Sedge, Umbrella [16, 26]
0: Plant response rating, Ryegrass, Italian ([5]; Preemergence) | Cocklebur plant response rating [8, 25] | Cocklebur plant response rating [8, 21] | Plant response rating, Cocklebur ([8]; Preemergence) | Plant response rating, Soybean ([14]; Preemergence) | Plant response rating, Sunflower ([15]; Preemergence) | Plant response rating, Barnyardgrass [17, 26]
